Measured values taken from article PMC8998350, “The Evidence for Effective Inhibition of INa Produced by Mirogabalin ((1R,5S,6S)-6-(aminomethyl)-3-ethyl-bicyclo [3.2.0] hept-3-ene-6-acetic acid), a Known Blocker of CaV Channels” (International Journal of Molecular Sciences, 2022).
pIC50: −log10 of the molar value.

Tested on: T1, voltage-gated Na+ (NaV) channel
T1 construct: native channels of pituitary GH3 cells, isoform not resolved
Test: whole-cell patch clamp of native late INa in GH3 cells
Type: cell-based

In the case of `CCC1=C[C@@H]2[C@H](C1)C[C@]2(CN)CC(=O)O` [MGB, (1R,5S,6S)-6-(aminomethyl)-3-ethyl-bicyclo [3.2.0] hept-3-ene-6-acetic acid], the pIC50 was 5.14.
